Data reported in PubChem BioAssay AID248 (DTP/NCI, 2004).
Where “and” joins values, the source holds several entries; their conditions need not be identical. Equal entries are not always repeated. Toxic doses and inconclusive results are not listed. Cut-off read from the data, not from the text of the source: active = T/C of 150% or more; inactive = T/C below 125%.

Tested on: L1210 leukemia ip in BDF1 mice, survival T/C
Experiment: NCI In Vivo Anticancer Drug Screen. Data for tumor model L1210 Leukemia (intraperitoneal) in B6D2F1 (BDF1) mice
Details: endpoint: mean survival time, higher = longer survival
How it was run: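 Value reflects the ratio of survival in compound-treated mice to survival in vehicle-treated controls, with both groups carrying the same transplanted tumor.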

[1] = dose: 100.0 mg/kg/injection, schedule: Q01DX001 (ip), vehicle: carboxymethylcellulose (CMC)
[2] = dose: 200.0 mg/kg/injection, schedule: Q01DX001 (ip), vehicle: carboxymethylcellulose (CMC)
[3] = dose: 400.0 mg/kg/injection, schedule: Q01DX001 (ip), vehicle: carboxymethylcellulose (CMC)
[4] = dose: 100.0 mg/kg/injection, schedule: Q01DX001 (ip), vehicle: saline
[5] = dose: 200.0 mg/kg/injection, schedule: Q01DX001 (ip), vehicle: saline
[6] = dose: 100.0 mg/kg/injection, schedule: Q01DX009 (ip), vehicle: Klucel (hydroxypropylcellulose) (HPC)
[7] = dose: 100.0 mg/kg/injection, schedule: Q04DX003 (ip), vehicle: saline
[8] = dose: 150.0 mg/kg/injection, schedule: Q01DX009 (ip), vehicle: Klucel (hydroxypropylcellulose) (HPC)
[9] = dose: 200.0 mg/kg/injection, schedule: Q01DX009 (ip), vehicle: Klucel (hydroxypropylcellulose) (HPC)
[10] = dose: 200.0 mg/kg/injection, schedule: Q04DX003 (ip), vehicle: saline
[11] = dose: 400.0 mg/kg/injection, schedule: Q01DX009 (ip), vehicle: Klucel (hydroxypropylcellulose) (HPC)
[12] = dose: 400.0 mg/kg/injection, schedule: Q04DX003 (ip), vehicle: saline
[13] = dose: 100.0 mg/kg/injection, schedule: Q01DX001 (ip), vehicle: Klucel (hydroxypropylcellulose) (HPC)
[14] = dose: 200.0 mg/kg/injection, schedule: Q01DX001 (ip), vehicle: Klucel (hydroxypropylcellulose) (HPC)
[15] = dose: 400.0 mg/kg/injection, schedule: Q01DX001 (ip), vehicle: Klucel (hydroxypropylcellulose) (HPC)
[16] = dose: 100.0 mg/kg/injection, schedule: Q04DX003 (ip), vehicle: Klucel (hydroxypropylcellulose) (HPC)
[17] = dose: 200.0 mg/kg/injection, schedule: Q04DX003 (ip), vehicle: Klucel (hydroxypropylcellulose) (HPC)
[18] = dose: 400.0 mg/kg/injection, schedule: Q04DX003 (ip), vehicle: Klucel (hydroxypropylcellulose) (HPC)
[19] = dose: 50.0 mg/kg/injection, schedule: Q01DX009 (ip), vehicle: Klucel (hydroxypropylcellulose) (HPC)
[20] = dose: 100.0 mg/kg/injection, schedule: Q01DX009 (ip), vehicle: saline
[21] = dose: 200.0 mg/kg/injection, schedule: Q01DX009 (ip), vehicle: saline
[22] = dose: 400.0 mg/kg/injection, schedule: Q01DX009 (ip), vehicle: saline

Measured: T/C

O=C(COc1cccc(Cl)c1)NCc1ccccc1NC(=O)c1cccc(S(=O)(=O)F)c1
inactive: [1] 90 % of control | [2] 95 % of control | [3] 95 % of control

OC(CNc1ccccc1)CN1CCN(CC(O)CNc2ccccc2)CC1 (configuration not stated)
inactive: dose: 50.0 mg/kg/injection, schedule: Q01DX001 (ip), vehicle: saline 105 % of control | [4] 98 % of control | [5] 94 % of control

Nc1ccc(S(=O)(=O)Nc2ccccn2)cc1
inactive: dose: 100.0 mg/kg/injection, schedule: Q04DX002 (ip), vehicle: Klucel (hydroxypropylcellulose) (HPC) 102 % of control | dose: 200.0 mg/kg/injection, schedule: Q04DX002 (ip), vehicle: Klucel (hydroxypropylcellulose) (HPC) 98 % of control | dose: 400.0 mg/kg/injection, schedule: Q04DX002 (ip), vehicle: Klucel (hydroxypropylcellulose) (HPC) 98 % of control

O=C1NC(=O)C(c2ccc(Cl)cc2)(c2ccc(Cl)cc2)N1
inactive: dose: 45.0 mg/kg/injection, schedule: Q01DX009 (ip), vehicle: Klucel (hydroxypropylcellulose) (HPC) 99 % of control | dose: 65.0 mg/kg/injection, schedule: Q01DX009 (ip), vehicle: Klucel (hydroxypropylcellulose) (HPC) 95 % of control | [6] 100 % of control | [7] 96 % of control | [8] 103 % of control | [9] 100 % of control | [10] 92 % of control | [11] 113 % of control | [12] 97 % of control

CC1(C)N=C(N)N=C(N)N1c1ccc(CNC(=O)Nc2ccc(S(=O)(=O)F)cc2)c(Cl)c1
inactive: dose: 45.0 mg/kg/injection, schedule: Q01DX009 (ip), vehicle: saline 111 % of control | dose: 67.0 mg/kg/injection, schedule: Q01DX009 (ip), vehicle: saline 120 % of control

O=C(CBr)c1ccccc1
inactive: dose: 10.0 mg/kg/injection, schedule: Q04DX003 (ip), vehicle: saline with Tween-80 93 % of control | dose: 20.0 mg/kg/injection, schedule: Q04DX003 (ip), vehicle: saline with Tween-80 97 % of control

CCN(C(=S)c1ccc(OC)cc1)c1cccc(C)c1
inactive: dose: 75.0 mg/kg/injection, schedule: Q04DX003 (ip), vehicle: Klucel (hydroxypropylcellulose) (HPC) 94 % of control | [13] 103 % of control | dose: 150.0 mg/kg/injection, schedule: Q04DX003 (ip), vehicle: Klucel (hydroxypropylcellulose) (HPC) 111 % of control | [14] 97 % of control | dose: 300.0 mg/kg/injection, schedule: Q04DX003 (ip), vehicle: Klucel (hydroxypropylcellulose) (HPC) 100 % of control | [15] 96 % of control

COc1ccc(C(O)c2c(CN(C)C)c3ccccc3n2C)cc1 (configuration not stated)
inactive: dose: 100.0 mg/kg/injection, schedule: Q04DX002 (ip), vehicle: other 106 % of control

CCCCNC(=O)c1ncccc1C(=O)O
inactive: [1] 111 % of control | dose: 100.0 mg/kg/injection, schedule: Q04DX003 (ip), vehicle: carboxymethylcellulose (CMC) 102 % of control | [2] 103 % of control | dose: 200.0 mg/kg/injection, schedule: Q04DX003 (ip), vehicle: carboxymethylcellulose (CMC) 95 % of control | [3] 97 % of control

CCOC(=O)N(C)c1ccccc1
inactive: [6] 101 % of control | [16] 97 % of control | [9] 105 % of control | [17] 97 % of control | [11] 101 % of control | [18] 97 % of control

O=C(O)c1ccccc1C(=O)Nc1ccc([N+](=O)[O-])cc1Cl
inactive: [19] 94 % of control | [6] 95 % of control | [16] 97 % of control | [9] 89 % of control | [17] 97 % of control

CN(C)CCNS(=O)(=O)N(C)C
inactive: [20] 102 % of control | [7] 95 % of control | [21] 102 % of control | [10] 100 % of control | [22] 108 % of control | [12] 97 % of control

CCCCC(CC)(CCN)CCCC
inactive: dose: 5.0 mg/kg/injection, schedule: Q01DX001 (ip), vehicle: carboxymethylcellulose (CMC) 102 % of control | dose: 10.0 mg/kg/injection, schedule: Q01DX001 (ip), vehicle: carboxymethylcellulose (CMC) 104 % of control | dose: 20.0 mg/kg/injection, schedule: Q01DX001 (ip), vehicle: carboxymethylcellulose (CMC) 91 % of control

CCOC(=O)c1cnc(SC)nc1Nc1ccc(Cl)c(Cl)c1
inactive: [13] 97 % of control | [14] 96 % of control | [15] 97 % of control

COC(=O)C1C2CC3C(OC(=O)C31)C2Br (configuration not stated)
inactive: [13] 98 % of control | [6] 102 % of control | [16] 104 % of control | [14] 103 % of control | [9] 93 % of control | [17] 105 % of control | [15] 109 % of control | [11] 94 % of control | [18] 107 % of control

C=CCNCC(O)c1ccccc1 (configuration not stated)
inactive: dose: 25.0 mg/kg/injection, schedule: Q01DX009 (ip), vehicle: Klucel (hydroxypropylcellulose) (HPC) 90 % of control | [19] 95 % of control | [6] 95 % of control and 103 % of control | [16] 95 % of control | [17] 101 % of control | [18] 95 % of control

C(=C/c1ccccc1)/C=N/Nc1ccccc1
inactive: [16] 98 % of control | [17] 95 % of control | [18] 92 % of control

C#CC(C)(C)C(C(=O)OCC)C(=O)OCC
inactive: dose: 75.0 mg/kg/injection, schedule: Q01DX009 (ip), vehicle: Klucel (hydroxypropylcellulose) (HPC) 102 % of control | [8] 100 % of control | dose: 300.0 mg/kg/injection, schedule: Q01DX009 (ip), vehicle: Klucel (hydroxypropylcellulose) (HPC) 97 % of control

Cc1c(Cl)cccc1NC(=O)Oc1cc(Cl)c(Cl)cc1Cl
inactive: dose: 50.0 mg/kg/injection, schedule: Q01DX009 (ip), vehicle: saline with Tween-80 92 % of control | dose: 100.0 mg/kg/injection, schedule: Q01DX009 (ip), vehicle: saline with Tween-80 96 % of control | dose: 100.0 mg/kg/injection, schedule: Q04DX003 (ip), vehicle: saline with Tween-80 95 % of control | dose: 200.0 mg/kg/injection, schedule: Q04DX003 (ip), vehicle: saline with Tween-80 106 % of control

OC1CSCCc2ccccc21 (configuration not stated)
inactive: dose: 100.0 mg/kg/injection, schedule: Q01DX001 (ip), vehicle: other 100 % of control | dose: 200.0 mg/kg/injection, schedule: Q01DX001 (ip), vehicle: other 98 % of control | dose: 400.0 mg/kg/injection, schedule: Q01DX001 (ip), vehicle: other 114 % of control

Cc1ccc(S(=O)(=O)NN=C(C2=CCCCC2)C2=CCCCC2)cc1
inactive: [7] 94 % of control | [10] 93 % of control | [12] 93 % of control

CCN(CC)C(=O)Oc1cccc(NC(=O)OC)c1
inactive: dose: 100.0 mg/kg/injection, schedule: Q01DX001 (ip), vehicle: saline with Tween-80 94 % of control | dose: 200.0 mg/kg/injection, schedule: Q01DX001 (ip), vehicle: saline with Tween-80 94 % of control | dose: 400.0 mg/kg/injection, schedule: Q01DX001 (ip), vehicle: saline with Tween-80 100 % of control

CC1(C)N=C(N)N=C(N)N1c1ccc(/C=C/C(=O)Nc2ccc(S(=O)(=O)F)cc2)cc1
inactive: dose: 75.0 mg/kg/injection, schedule: Q01DX001 (ip), vehicle: Klucel (hydroxypropylcellulose) (HPC) 97 % of control | dose: 150.0 mg/kg/injection, schedule: Q01DX001 (ip), vehicle: Klucel (hydroxypropylcellulose) (HPC) 92 % of control

Cc1cccc2c(=O)c3ccccc3oc12
inactive: [4] 98 % of control and 104 % of control | [5] 95 % of control and 101 % of control | dose: 400.0 mg/kg/injection, schedule: Q01DX001 (ip), vehicle: saline 93 % of control and 97 % of control

CCOC(=O)N1c2ccccc2C=CC1C#N (configuration not stated)
inactive: dose: 44.0 mg/kg/injection, schedule: Q04DX003 (ip), vehicle: saline 108 % of control | dose: 66.0 mg/kg/injection, schedule: Q04DX003 (ip), vehicle: saline 105 % of control | [20] 93 % of control | [7] 94 % of control and 96 % of control | [21] 100 % of control | [10] 101 % of control and 102 % of control | [22] 95 % of control | [12] 102 % of control

Nc1ncnc(N)c1NC(=O)CCCCc1ccccc1
inactive: [7] 100 % of control | [10] 92 % of control | [12] 100 % of control
